Legend:
[1] = molecular target: T1, chimeric receptor containing the EGFR extracellular domain and intracellular HER2 kinase domain (Homo sapiens, UniProt P04626); test: EGF Receptor-HER2 chimeric receptor assay in whole cells (ELISA); type: cell-based; conditions: read-out: HER-2 kinase IC50
T1 construct: fused on or other part: EGFR ectodomain + HER2 intracellular part, ATP-site indolinones: HER2's kinase
In short: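 NIH3T3 cells overexpressing EGFR-extracellular/HER2-kinase chimera, seeded in 0.5% serum for ~40 h, were pretreated with compound (1% final DMSO) 2 h at 37 °C, then stimulated with 100 nM EGF for 5 min. Lysates captured on anti-EGFR plates; phosphotyrosine detected by anti-Ptyr/HRP ELISA at 410 nm as percent inhibition.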

SKOV3 cells = test: SKOV3 growth assay (2% FBS); type: cell-based; conditions: Homo sapiens, SK-OV-3, read-out: SKOV3 growth (2% FBS) IC50
A431 cells = test: A431 growth assay (2% FBS); type: cell-based; conditions: Homo sapiens, A-431, read-out: A431 growth (2% FBS) IC50

T1 sequence (P04626 720-1255 limits assumed, change not shown): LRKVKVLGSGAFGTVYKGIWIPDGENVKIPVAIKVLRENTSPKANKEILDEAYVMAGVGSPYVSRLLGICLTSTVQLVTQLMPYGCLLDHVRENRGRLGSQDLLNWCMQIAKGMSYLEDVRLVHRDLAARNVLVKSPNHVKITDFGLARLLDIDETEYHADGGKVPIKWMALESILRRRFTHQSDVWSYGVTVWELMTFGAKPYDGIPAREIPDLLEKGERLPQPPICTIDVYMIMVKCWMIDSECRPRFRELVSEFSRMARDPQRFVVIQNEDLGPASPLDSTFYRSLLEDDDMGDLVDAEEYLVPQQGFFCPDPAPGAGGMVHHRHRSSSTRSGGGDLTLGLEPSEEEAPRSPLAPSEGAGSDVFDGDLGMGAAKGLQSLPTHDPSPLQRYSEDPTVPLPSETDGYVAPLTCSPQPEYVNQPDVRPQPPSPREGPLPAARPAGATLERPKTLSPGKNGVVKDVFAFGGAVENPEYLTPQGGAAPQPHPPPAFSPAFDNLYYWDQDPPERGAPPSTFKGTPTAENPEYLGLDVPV

IC50 [1]	IC50 (SKOV3 cells)	IC50 (A431 cells)	melting point	SMILES
6.07 µM				Cc1cc(CCC(=O)O)c(/C=C2\C(=O)Nc3ccc(Br)cc32)[nH]1 [Compound 116, 3-[2-(5-Bromo-2-oxo-1,2-dihydroindol-3-ylidenemethyl)-5-methyl-1H-pyrrol-3-yl]-propionic acid]
13.7 µM	4.8 µM	4.5 µM		COc1c(C(C)C)cc(/C=C2/C(=O)Nc3ccc(Cl)cc32)cc1C(C)C [Example 2, 5-Chloro-3-(3,5-diisopropyl-4-methoxybenzylidene)-1,3-dihydroindol-2-one]
			263 to 266 °C	COc1ccc2c(c1)NC(=O)/C2=C\c1[nH]c2c(c1CCC(=O)O)CCCC2 [Example 196, 3-[2-(6-Methoxy-2-oxo-1,2-dihydroindol-3-ylidenemethyl)-4,5,6,7-tetrahydro-1H-indol-3-yl]-propionic acid]
13.8 µM	5.5 µM	5.4 µM		COc1c(C(C)C)cc(/C=C2/C(=O)Nc3ccccc32)cc1C(C)C [Example 1, 3-(3,5-Diisopropyl-4-methoxybenzylidene)-1,3-dihydroindol-2-one]
61.7 µM				CCOC(=O)c1c(C)[nH]c(/C=C2\C(=O)Nc3ccc(Br)cc32)c1CCC(=O)O [Compound 114, 5-(5-Bromo-2-oxo-1,2-dihydroindol-3-ylidenemethyl)-4-(2-carboxyethyl)-2-methyl-1H-pyrrole-3-carboxylic acid ethyl ester]

— patent US6855730B2, “3-methylidenyl-2-indolinone modulators of protein kinase” (Sugen, Inc., priority 1998, dated 2005)
